Where two headings read alike, the source gives them in different places.
Legend:
Assay in all cases: Test A pre/postemergence
Format in all cases: in vivo
[1] = tested on: morningglory (Ipomoea spp.); conditions: for pest or weed control at 125 g/ha / pest or weed control at 500 g/ha: Ipomoea, 240 h, read-out: Plant response rating, Morningglory; for pest or weed control at 125 g/ha: 125 g ai/ha
Experimental: (§1) Seeds of barnyardgrass (Echinochloa crus-galli), crabgrass (Digitaria sanguinalis), giant foxtail (Setaria faberi), morningglory (Ipomoea spp.), redroot pigweed (Amaranthus retroflexus) and velvetleaf (Abutilon theophrasti) were planted into a blend of loam soil and sand and treated preemergence with a directed soil spray using test chemicals formulated in a non-phytotoxic solvent mixture which included a surfactant. At the same time these species were also treated with postemergence applications of test chemicals formulated in the same manner.
(§2) Plants ranged in height from 2 to 10 cm and were in the 1- to 2-leaf stage for the postemergence treatment. Treated plants and untreated controls were maintained in a greenhouse for approximately ten days, after which time all treated plants were compared to untreated controls and visually evaluated for injury. Plant response ratings, summarized in Table A, are based on a 0 to 100 scale where 0 is no effect and 100 is complete control. A dash (-) response means no test results.

[2] = tested on: giant foxtail (Setaria faberi); conditions: for pest or weed control at 125 g/ha / pest or weed control at 500 g/ha: Setaria faberi, 240 h, read-out: Plant response rating, Foxtail, Giant; for pest or weed control at 125 g/ha: 125 g ai/ha
Experimental: as §1, §2

[3] = tested on: velvetleaf (Abutilon theophrasti); conditions: for pest or weed control at 125 g/ha / pest or weed control at 500 g/ha: Abutilon theophrasti, 240 h, read-out: Plant response rating, Velvetleaf; for pest or weed control at 125 g/ha: 125 g ai/ha
Experimental: as §1, §2

[4] = tested on: crabgrass (Digitaria sanguinalis); conditions: for pest or weed control at 125 g/ha / pest or weed control at 500 g/ha: Digitaria sanguinalis, 240 h, read-out: Plant response rating, Crabgrass; for pest or weed control at 125 g/ha: 125 g ai/ha
Experimental: as §1, §2

[5] = tested on: barnyardgrass (Echinochloa crus-galli); conditions: for pest or weed control at 125 g/ha / pest or weed control at 500 g/ha: Echinochloa crus-galli, 240 h, read-out: Plant response rating, Barnyardgrass; for pest or weed control at 125 g/ha: 125 g ai/ha
Experimental: as §1, §2

[6] = tested on: redroot pigweed (Amaranthus retroflexus); conditions: for pest or weed control at 125 g/ha / pest or weed control at 500 g/ha: Amaranthus retroflexus, 240 h, read-out: Plant response rating, Pigweed; for pest or weed control at 125 g/ha: 125 g ai/ha
Experimental: as §1, §2

[7] = post-emergence, Postemergence, 0 to 100 scale (0 no effect, 100 complete control)
[8] = post-emergence, Postemergence, 500 g ai/ha, 0 to 100 scale (0 no effect, 100 complete control)
[9] = pre-emergence, Preemergence, 0 to 100 scale where 0 is no effect and 100 is complete control, approximately ten days
[10] = pre-emergence, Preemergence, 500 g ai/ha, 0 to 100 scale where 0 is no effect and 100 is complete control, approximately ten days
[11] = Postemergence, 250 g ai/ha, 0 to 100 scale (0 no effect, 100 complete control)
[12] = Postemergence, 1000 g ai/ha, 0 to 100 scale (0 no effect, 100 complete control)
[13] = Preemergence, 250 g ai/ha, 0 to 100 scale where 0 is no effect and 100 is complete control, approximately ten days
[14] = Preemergence, 1000 g ai/ha, 0 to 100 scale (0 no effect, 100 complete control)
[15] = Postemergence, 500 g ai/ha, 0 to 100 scale (0 no effect, 100 complete control)
[16] = Postemergence, 2000 g ai/ha, 0 to 100 scale (0 no effect, 100 complete control)
[17] = Preemergence, 500 g ai/ha, 0 to 100 scale where 0 is no effect and 100 is complete control, approximately ten days
[18] = Preemergence, 2000 g ai/ha, 0 to 100 scale (0 no effect, 100 complete control)

Work on `NC(=O)c1nc(C2CC2)nc(N)c1Br` [Compound 20] yielded a pest or weed control at 125 g/ha [1, 7] of 20%, a pest or weed control at 500 g/ha [1, 8] of 40% and a pest or weed control at 125 g/ha [1, 9] of 10%. The pest or weed control at 500 g/ha [1, 10] was 60%, the pest or weed control at 125 g/ha [2, 7] was 0% and the pest or weed control at 500 g/ha [2, 8] was 0%. It also gave a pest or weed control at 125 g/ha [2, 9] of 0%, a pest or weed control at 500 g/ha [2, 10] of 0% and a pest or weed control at 125 g/ha [3, 7] of 10%. It also gave a pest or weed control at 500 g/ha [3, 8] of 55%, a pest or weed control at 125 g/ha [3, 9] of 0% and a pest or weed control at 500 g/ha [3, 10] of 70%. The pest or weed control at 125 g/ha [4, 7] was 0%, the pest or weed control at 500 g/ha [4, 8] was 0% and the pest or weed control at 125 g/ha [4, 9] was 0%. The pest or weed control at 500 g/ha [4, 10] was 0%, the pest or weed control at 125 g/ha [5, 7] was 0% and the pest or weed control at 500 g/ha [5, 8] was 0%. The pest or weed control at 125 g/ha [5, 9] was 0%, the pest or weed control at 500 g/ha [5, 10] was 0% and the pest or weed control at 125 g/ha [6, 7] was 40%. The pest or weed control at 500 g/ha [6, 8] was 60%, the pest or weed control at 125 g/ha [6, 9] was 40% and the pest or weed control at 500 g/ha [6, 10] was 70%.

`COC(=O)c1nc(-c2ccc(F)cc2)nc(N)c1Cl` [Compound 43] was tested, and the “Plant response rating, Morningglory” value [1, 11] was 20, the “Plant response rating, Morningglory” value [1, 12] was 45 and the “Plant response rating, Morningglory” value [1, 13] was 0. For the same compound, the “Plant response rating, Morningglory” value [1, 14] was 45, the “Plant response rating, Foxtail, Giant” value [2, 11] was 10 and the “Plant response rating, Foxtail, Giant” value [2, 12] was 10. The “Plant response rating, Foxtail, Giant” value [2, 13] was 0, the “Plant response rating, Foxtail, Giant” value [2, 14] was 10 and the “Plant response rating, Velvetleaf” value [3, 11] was 50. For the same compound, the “Plant response rating, Velvetleaf” value [3, 12] was 50, the “Plant response rating, Velvetleaf” value [3, 13] was 0 and the “Plant response rating, Velvetleaf” value [3, 14] was 20. For the same compound, the “Plant response rating, Crabgrass” value [4, 11] was 10, the “Plant response rating, Crabgrass” value [4, 12] was 30 and the “Plant response rating, Crabgrass” value [4, 13] was 0. The “Plant response rating, Crabgrass” value [4, 14] was 10, the “Plant response rating, Barnyardgrass” value [5, 11] was 10 and the “Plant response rating, Barnyardgrass” value [5, 12] was 20. The “Plant response rating, Barnyardgrass” value [5, 13] was 0, the “Plant response rating, Barnyardgrass” value [5, 14] was 10 and the “Plant response rating, Pigweed” value [6, 11] was 60. The “Plant response rating, Pigweed” value [6, 12] was 85, the “Plant response rating, Pigweed” value [6, 13] was 0 and the “Plant response rating, Pigweed” value [6, 14] was 75.

`CCOC(=O)C(O)c1nc(C2CC2)nc(N)c1Br` (stereo not drawn) [Compound 57] was tested, and the “Plant response rating, Morningglory” value [1, 15] was 70, the “Plant response rating, Morningglory” value [1, 16] was 80 and the “Plant response rating, Morningglory” value [1, 17] was 100. For the same compound, the “Plant response rating, Morningglory” value [1, 18] was 100, the “Plant response rating, Foxtail, Giant” value [2, 15] was 60 and the “Plant response rating, Foxtail, Giant” value [2, 16] was 80. The “Plant response rating, Foxtail, Giant” value [2, 17] was 10, the “Plant response rating, Foxtail, Giant” value [2, 18] was 70 and the “Plant response rating, Velvetleaf” value [3, 15] was 50. For the same compound, the “Plant response rating, Velvetleaf” value [3, 16] was 80, the “Plant response rating, Velvetleaf” value [3, 17] was 80 and the “Plant response rating, Velvetleaf” value [3, 18] was 95. The “Plant response rating, Crabgrass” value [4, 15] was 10, the “Plant response rating, Crabgrass” value [4, 16] was 30 and the “Plant response rating, Crabgrass” value [4, 17] was 10. For the same compound, the “Plant response rating, Crabgrass” value [4, 18] was 70, the “Plant response rating, Barnyardgrass” value [5, 15] was 25 and the “Plant response rating, Barnyardgrass” value [5, 16] was 75. The “Plant response rating, Barnyardgrass” value [5, 17] was 25, the “Plant response rating, Barnyardgrass” value [5, 18] was 80 and the “Plant response rating, Pigweed” value [6, 15] was 75. For the same compound, the “Plant response rating, Pigweed” value [6, 16] was 95, the “Plant response rating, Pigweed” value [6, 17] was 90 and the “Plant response rating, Pigweed” value [6, 18] was 100.

With `CCOC(=O)c1nc(-c2ccc3c(c2)OCO3)nc(N)c1Br` [Compound 68] the pest or weed control at 125 g/ha [1, 7] was 15%, the pest or weed control at 500 g/ha [1, 8] was 35% and the pest or weed control at 125 g/ha [1, 9] was 0%. The pest or weed control at 500 g/ha [1, 10] was 0%, the pest or weed control at 125 g/ha [2, 7] was 0% and the pest or weed control at 500 g/ha [2, 8] was 0%. The pest or weed control at 125 g/ha [2, 9] was 0%, the pest or weed control at 500 g/ha [2, 10] was 0% and the pest or weed control at 125 g/ha [3, 7] was 60%. For the same compound, the pest or weed control at 500 g/ha [3, 8] was 60%, the pest or weed control at 125 g/ha [3, 9] was 5% and the pest or weed control at 500 g/ha [3, 10] was 10%. For the same compound, the pest or weed control at 125 g/ha [4, 7] was 0%, the pest or weed control at 500 g/ha [4, 8] was 0% and the pest or weed control at 125 g/ha [4, 9] was 0%. The pest or weed control at 500 g/ha [4, 10] was 0%, the pest or weed control at 125 g/ha [5, 7] was 0% and the pest or weed control at 500 g/ha [5, 8] was 0%. For the same compound, the pest or weed control at 125 g/ha [5, 9] was 0%, the pest or weed control at 500 g/ha [5, 10] was 0% and the pest or weed control at 125 g/ha [6, 7] was 50%. The pest or weed control at 500 g/ha [6, 8] was 55%, the pest or weed control at 125 g/ha [6, 9] was 0% and the pest or weed control at 500 g/ha [6, 10] was 15%.

In the case of `CNC(=O)c1nc(C2CC2)nc(N)c1Cl` [Compound 81], the pest or weed control at 125 g/ha [1, 7] is reported as 50%, the pest or weed control at 500 g/ha [1, 8] is reported as 80% and the pest or weed control at 125 g/ha [1, 9] is reported as 0%. For the same compound, the pest or weed control at 500 g/ha [1, 10] was 50%, the pest or weed control at 125 g/ha [2, 7] was 0% and the pest or weed control at 500 g/ha [2, 8] was 30%. For the same compound, the pest or weed control at 125 g/ha [2, 9] was 0%, the pest or weed control at 500 g/ha [2, 10] was 10% and the pest or weed control at 125 g/ha [3, 7] was 50%. For the same compound, the pest or weed control at 500 g/ha [3, 8] was 75%, the pest or weed control at 125 g/ha [3, 9] was 20% and the pest or weed control at 500 g/ha [3, 10] was 40%. It also gave a pest or weed control at 125 g/ha [4, 7] of 0%, a pest or weed control at 500 g/ha [4, 8] of 10% and a pest or weed control at 125 g/ha [4, 9] of 0%. For the same compound, the pest or weed control at 500 g/ha [4, 10] was 10%, the pest or weed control at 125 g/ha [5, 7] was 0% and the pest or weed control at 500 g/ha [5, 8] was 30%. It also gave a pest or weed control at 125 g/ha [5, 9] of 10%, a pest or weed control at 500 g/ha [5, 10] of 20% and a pest or weed control at 125 g/ha [6, 7] of 55%. For the same compound, the pest or weed control at 500 g/ha [6, 8] was 75%, the pest or weed control at 125 g/ha [6, 9] was 60% and the pest or weed control at 500 g/ha [6, 10] was 70%.

Reference: US8802597B2, “Herbicidal pyrimidines” (E I du Pont de Nemours and Company, priority 2003, dated 2014)
